Article PMC8799717, “Pharmacological targeting PIKfyve and tubulin as an effective treatment strategy for double-hit lymphoma” (Cell Death Discovery, 2022)

Tests used:
Assay in all cases: biochemical
Design in all cases: KINOMEscan active-site-directed competition binding panel, 468 kinases, percent of DMSO control at 1 uM
Conditions in all cases: KINOMEscan binding, percent of DMSO control; read-out: Ctrl%
[1] = target: ACVR1B (Homo sapiens, UniProt P36896)
[2] = target: BRAF(V600E) (Homo sapiens, UniProt P15056, V600E)
[3] = target: CAMK4 (Homo sapiens, UniProt Q16566)
[4] = target: CAMKK1 (Homo sapiens, UniProt Q8N5S9)
[5] = target: T1, CDK4-cyclinD1 (Homo sapiens, UniProt P11802)
T1 construct: cyclinD1

[6] = target: EPHB4 (Homo sapiens, UniProt P54760)
[7] = target: EPHB6 (Homo sapiens, UniProt O15197)
[8] = target: ERBB2 (Homo sapiens, UniProt P04626)
[9] = target: FLT3(D835H) (Homo sapiens, UniProt P36888, D835H)
[10] = target: MARK1 (Homo sapiens, UniProt Q9P0L2)
[11] = target: T2, PFTAIRE2 (Homo sapiens, UniProt Q96Q40)
T2 construct: gene CDK15

[12] = target: PHKG1 (Homo sapiens, UniProt Q16816)
[13] = target: PRKD2 (Homo sapiens, UniProt Q9BZL6)
[14] = target: T3, PRP4 (Homo sapiens, UniProt Q13523)
T3 construct: gene PRPF4B

[15] = target: T4, RPS6KA4(Kin.Dom.1-N-terminal) (Homo sapiens, UniProt O75676)
T4 construct: Kin.Dom.1-N-terminal

[16] = target: T5, RPS6KA5(Kin.Dom.2-C-terminal) (Homo sapiens, UniProt O75582)
T5 construct: Kin.Dom.2-C-terminal

[17] = target: T6, RSK4(Kin.Dom.1-N-terminal) (Homo sapiens, UniProt Q9UK32)
T6 construct: gene RPS6KA6; Kin.Dom.1-N-terminal

[18] = target: T7, RSK4(Kin.Dom.2-C-terminal) (Homo sapiens, UniProt Q9UK32)
T7 construct: gene RPS6KA6; Kin.Dom.2-C-terminal

[19] = target: TESK1 (Homo sapiens, UniProt Q15569)
[20] = target: TGFBR1 (Homo sapiens, UniProt P36897)
[21] = target: TLK1 (Homo sapiens, UniProt Q9UKI8)
[22] = target: TYRO3 (Homo sapiens, UniProt Q06418)
[23] = target: WNK3 (Homo sapiens, UniProt Q9BYP7)

Chain of TGFBR1 (P36897 whole entry): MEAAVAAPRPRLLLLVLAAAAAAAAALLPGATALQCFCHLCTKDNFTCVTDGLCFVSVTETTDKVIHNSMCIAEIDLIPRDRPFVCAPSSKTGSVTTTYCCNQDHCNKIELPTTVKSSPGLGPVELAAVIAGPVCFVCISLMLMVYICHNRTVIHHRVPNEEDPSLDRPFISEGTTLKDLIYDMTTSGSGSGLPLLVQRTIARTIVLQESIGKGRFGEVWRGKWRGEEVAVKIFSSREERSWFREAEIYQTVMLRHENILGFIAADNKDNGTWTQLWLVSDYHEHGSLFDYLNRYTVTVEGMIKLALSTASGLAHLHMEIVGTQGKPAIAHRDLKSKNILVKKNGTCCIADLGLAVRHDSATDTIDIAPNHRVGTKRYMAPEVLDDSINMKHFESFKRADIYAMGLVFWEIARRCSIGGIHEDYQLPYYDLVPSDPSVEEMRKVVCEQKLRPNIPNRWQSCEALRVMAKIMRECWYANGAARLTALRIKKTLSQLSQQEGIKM
Chain of ERBB2 (P04626 whole entry): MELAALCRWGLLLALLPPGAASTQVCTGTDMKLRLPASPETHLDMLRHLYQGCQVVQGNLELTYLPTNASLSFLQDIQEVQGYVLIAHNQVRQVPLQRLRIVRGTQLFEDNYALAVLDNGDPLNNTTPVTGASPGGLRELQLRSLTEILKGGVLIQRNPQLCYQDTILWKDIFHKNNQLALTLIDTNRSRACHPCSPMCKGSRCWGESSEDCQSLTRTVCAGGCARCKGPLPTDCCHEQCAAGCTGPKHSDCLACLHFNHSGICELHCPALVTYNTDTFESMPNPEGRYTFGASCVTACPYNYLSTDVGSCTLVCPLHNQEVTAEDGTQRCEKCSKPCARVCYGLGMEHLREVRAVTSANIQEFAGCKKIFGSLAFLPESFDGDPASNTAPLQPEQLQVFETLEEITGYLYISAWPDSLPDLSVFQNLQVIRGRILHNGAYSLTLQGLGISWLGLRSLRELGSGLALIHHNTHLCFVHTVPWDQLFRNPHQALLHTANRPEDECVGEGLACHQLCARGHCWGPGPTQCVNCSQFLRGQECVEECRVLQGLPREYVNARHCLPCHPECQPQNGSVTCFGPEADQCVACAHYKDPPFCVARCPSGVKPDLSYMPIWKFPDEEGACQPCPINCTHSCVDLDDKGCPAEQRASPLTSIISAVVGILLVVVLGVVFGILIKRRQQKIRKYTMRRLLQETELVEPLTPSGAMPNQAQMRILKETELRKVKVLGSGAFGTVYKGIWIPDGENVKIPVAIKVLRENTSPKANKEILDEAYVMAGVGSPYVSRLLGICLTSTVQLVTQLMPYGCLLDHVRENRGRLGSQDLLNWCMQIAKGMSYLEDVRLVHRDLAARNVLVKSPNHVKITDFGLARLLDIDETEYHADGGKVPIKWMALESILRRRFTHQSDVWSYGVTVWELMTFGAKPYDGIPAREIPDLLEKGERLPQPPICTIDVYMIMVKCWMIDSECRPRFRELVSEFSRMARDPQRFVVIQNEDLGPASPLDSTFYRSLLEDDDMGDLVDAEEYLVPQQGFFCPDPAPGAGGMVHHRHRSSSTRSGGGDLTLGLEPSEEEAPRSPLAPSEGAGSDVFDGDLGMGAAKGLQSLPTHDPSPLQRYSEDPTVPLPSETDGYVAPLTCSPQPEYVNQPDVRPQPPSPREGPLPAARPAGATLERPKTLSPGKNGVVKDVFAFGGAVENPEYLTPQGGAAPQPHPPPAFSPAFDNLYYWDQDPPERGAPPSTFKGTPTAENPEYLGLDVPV
T3 sequence (Q13523 whole entry): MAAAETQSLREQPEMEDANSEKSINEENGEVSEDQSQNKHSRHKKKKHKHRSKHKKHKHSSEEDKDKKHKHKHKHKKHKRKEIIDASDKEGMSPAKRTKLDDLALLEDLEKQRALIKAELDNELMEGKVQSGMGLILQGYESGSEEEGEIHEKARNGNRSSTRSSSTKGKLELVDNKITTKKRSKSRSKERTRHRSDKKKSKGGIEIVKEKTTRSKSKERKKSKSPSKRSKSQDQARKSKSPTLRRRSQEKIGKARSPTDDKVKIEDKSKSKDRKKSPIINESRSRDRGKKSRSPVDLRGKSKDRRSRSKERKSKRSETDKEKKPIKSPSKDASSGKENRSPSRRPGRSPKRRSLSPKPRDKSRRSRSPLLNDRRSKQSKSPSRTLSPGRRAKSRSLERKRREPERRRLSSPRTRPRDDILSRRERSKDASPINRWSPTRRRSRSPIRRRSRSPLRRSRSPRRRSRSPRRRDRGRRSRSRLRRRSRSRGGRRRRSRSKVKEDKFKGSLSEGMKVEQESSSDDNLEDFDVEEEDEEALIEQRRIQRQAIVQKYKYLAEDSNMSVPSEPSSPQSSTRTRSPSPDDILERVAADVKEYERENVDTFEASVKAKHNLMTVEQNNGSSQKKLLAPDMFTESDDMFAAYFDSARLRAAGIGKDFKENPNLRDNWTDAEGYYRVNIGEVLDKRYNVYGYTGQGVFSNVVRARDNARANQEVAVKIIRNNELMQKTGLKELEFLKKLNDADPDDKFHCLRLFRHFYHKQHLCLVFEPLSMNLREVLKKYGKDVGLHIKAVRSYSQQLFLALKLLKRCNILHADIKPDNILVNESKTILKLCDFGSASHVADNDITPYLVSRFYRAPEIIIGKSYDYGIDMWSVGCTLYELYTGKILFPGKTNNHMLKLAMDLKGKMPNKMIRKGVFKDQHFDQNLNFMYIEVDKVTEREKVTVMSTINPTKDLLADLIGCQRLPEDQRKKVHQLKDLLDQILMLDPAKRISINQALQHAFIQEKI
Chain of EPHB4 (P54760 whole entry): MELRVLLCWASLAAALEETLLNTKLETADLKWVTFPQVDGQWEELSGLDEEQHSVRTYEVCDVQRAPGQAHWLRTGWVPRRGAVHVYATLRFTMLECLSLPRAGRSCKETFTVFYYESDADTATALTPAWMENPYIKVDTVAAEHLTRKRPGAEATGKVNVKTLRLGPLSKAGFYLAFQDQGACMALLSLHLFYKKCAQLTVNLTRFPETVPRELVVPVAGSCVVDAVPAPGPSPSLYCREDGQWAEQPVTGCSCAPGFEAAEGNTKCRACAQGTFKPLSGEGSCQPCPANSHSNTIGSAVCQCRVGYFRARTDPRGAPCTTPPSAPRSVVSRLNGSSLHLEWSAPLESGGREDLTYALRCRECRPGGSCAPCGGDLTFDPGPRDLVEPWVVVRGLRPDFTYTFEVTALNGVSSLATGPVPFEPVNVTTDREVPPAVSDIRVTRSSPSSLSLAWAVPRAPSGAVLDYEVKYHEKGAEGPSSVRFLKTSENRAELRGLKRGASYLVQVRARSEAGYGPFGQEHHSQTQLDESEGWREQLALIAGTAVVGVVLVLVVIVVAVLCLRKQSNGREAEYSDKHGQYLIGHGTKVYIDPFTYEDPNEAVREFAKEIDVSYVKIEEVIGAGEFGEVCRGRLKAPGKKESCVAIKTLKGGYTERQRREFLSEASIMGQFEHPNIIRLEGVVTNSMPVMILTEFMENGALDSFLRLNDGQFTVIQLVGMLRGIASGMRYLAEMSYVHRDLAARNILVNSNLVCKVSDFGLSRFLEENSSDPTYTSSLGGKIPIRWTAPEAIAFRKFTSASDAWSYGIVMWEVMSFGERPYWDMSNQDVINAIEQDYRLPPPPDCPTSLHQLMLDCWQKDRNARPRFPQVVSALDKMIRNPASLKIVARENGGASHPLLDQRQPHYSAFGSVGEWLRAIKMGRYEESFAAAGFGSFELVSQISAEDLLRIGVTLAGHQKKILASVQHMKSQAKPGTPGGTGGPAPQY
Chain of PRKD2 (Q9BZL6 whole entry): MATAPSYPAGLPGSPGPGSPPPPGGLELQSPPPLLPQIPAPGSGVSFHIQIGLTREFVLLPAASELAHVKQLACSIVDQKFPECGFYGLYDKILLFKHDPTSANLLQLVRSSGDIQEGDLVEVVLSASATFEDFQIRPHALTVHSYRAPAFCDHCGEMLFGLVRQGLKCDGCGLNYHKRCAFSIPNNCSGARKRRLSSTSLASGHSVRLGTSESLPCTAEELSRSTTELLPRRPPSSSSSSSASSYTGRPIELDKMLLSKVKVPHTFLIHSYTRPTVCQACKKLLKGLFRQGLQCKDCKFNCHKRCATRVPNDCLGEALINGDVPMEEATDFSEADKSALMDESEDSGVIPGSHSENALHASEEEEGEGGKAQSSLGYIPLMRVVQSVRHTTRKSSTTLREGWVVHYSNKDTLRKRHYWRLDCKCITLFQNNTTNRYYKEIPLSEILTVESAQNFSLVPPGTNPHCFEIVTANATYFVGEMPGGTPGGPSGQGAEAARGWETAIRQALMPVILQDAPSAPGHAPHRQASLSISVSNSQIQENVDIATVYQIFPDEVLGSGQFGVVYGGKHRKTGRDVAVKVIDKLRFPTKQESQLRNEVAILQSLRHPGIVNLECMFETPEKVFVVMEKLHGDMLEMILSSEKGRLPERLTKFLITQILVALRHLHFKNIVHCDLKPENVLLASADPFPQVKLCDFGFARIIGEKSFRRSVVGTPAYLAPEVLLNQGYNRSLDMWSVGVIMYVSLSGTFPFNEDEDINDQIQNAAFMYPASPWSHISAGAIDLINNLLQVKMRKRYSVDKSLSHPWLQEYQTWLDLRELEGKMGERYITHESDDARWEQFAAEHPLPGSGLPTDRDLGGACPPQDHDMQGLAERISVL
T2 sequence (Q96Q40 whole entry): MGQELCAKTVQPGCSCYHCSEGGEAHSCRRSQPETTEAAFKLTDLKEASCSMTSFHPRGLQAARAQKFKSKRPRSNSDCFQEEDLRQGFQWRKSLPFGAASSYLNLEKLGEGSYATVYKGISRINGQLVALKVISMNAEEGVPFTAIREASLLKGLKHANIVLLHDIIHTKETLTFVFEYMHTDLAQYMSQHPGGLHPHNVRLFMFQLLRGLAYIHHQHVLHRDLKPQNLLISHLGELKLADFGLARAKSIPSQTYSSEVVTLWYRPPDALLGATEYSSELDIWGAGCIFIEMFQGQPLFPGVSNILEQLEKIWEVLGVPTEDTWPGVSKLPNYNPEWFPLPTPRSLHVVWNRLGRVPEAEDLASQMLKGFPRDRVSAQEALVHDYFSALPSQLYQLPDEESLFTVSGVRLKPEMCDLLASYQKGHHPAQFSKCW

## Cc1ccc(NC(=O)c2cccc(C(F)(F)F)c2)cc1Nc1cc(-c2cccnc2)nc2[nH]ccc12 [HZX-02-059]
[1]
  remaining binding at 1 µM: 72%
[2]
  remaining binding at 1 µM: 4.5%
[3]
  remaining binding at 1 µM: 83%
[4]
  remaining binding at 1 µM: 97%
[5]
  remaining binding at 1 µM: 98%
[6]
  remaining binding at 1 µM: 30%
[7]
  remaining binding at 1 µM: 42%
[8]
  remaining binding at 1 µM: 95%
[9]
  remaining binding at 1 µM: 92%
[10]
  remaining binding at 1 µM: 94%
[11]
  remaining binding at 1 µM: 81%
[12]
  remaining binding at 1 µM: 97%
[13]
  remaining binding at 1 µM: 92%
[14]
  remaining binding at 1 µM: 69%
[15]
  remaining binding at 1 µM: 93%
[16]
  remaining binding at 1 µM: 99%
[17]
  remaining binding at 1 µM: 79%
[18]
  remaining binding at 1 µM: 97%
[19]
  remaining binding at 1 µM: 77%
[20]
  remaining binding at 1 µM: 76%
[21]
  remaining binding at 1 µM: 95%
[22]
  remaining binding at 1 µM: 100%
[23]
  remaining binding at 1 µM: 100%
